Laboratory results from US20250084080A1, “CRYSTALLINE AND SALT FORMS OF AN NLRP3 INHIBITOR” (BioAge Labs, Inc., priority 2023, published 2025).
Values after ≈ are worked out from the molar mass of the structure shown.

How the values were obtained:
Type in all cases: physicochemical
[1] = Exposure of Pattern C in ambient condition (variable temperature XRPD); conditions: 23° C., 27% RH
Procedure: Pattern C is an anhydrate. It was obtained in variable temperature XRPD experiment by heating Pattern A to 100° C. under the nitrogen atmosphere. Pattern C is of high crystallinity. According to the DSC thermogram of Pattern A, Pattern C has a melting peak at Tonset of 134.2° C. Pattern C is a metastable form.

[2] = Solubility at 37° C. in buffers and biorelevant media, XRPD of residual solid; conditions: for XRPD of residual solid: 24 h; for solubility: thermodynamic from solid
Procedure: Solubility of BAL-0748 free form Pattern B was investigated in pH 1.2 HCl buffer, pH 4.5 50 mM acetate buffer, pH 6.8 50 mM phosphate buffer, water, pH 1.6 FaSSGF, pH 6.5 FaSSIF-v1, pH 5.0 FeSSIF-v1 and 2% HPMC+1% Pluronic F68 in pH 4.5 50 mM acetate buffer at 37° C. for 2 h and 24 h. Residual solids after the solubility test were analyzed by XRPD.
Solubility of the free form Pattern A, the HCl salt Pattern A, the phosphate salt Pattern A, and the sodium salt Pattern A was measured in pH 1.2 HCl buffer, pH 4.5 acetate buffer (50 mM), pH 6.8 phosphate buffer (50 mM), water, pH 1.6 FaSSGF, pH 6.5 FaSSIF-v1, pH 5.0 FeSSIF-v1, and 2% HPMC+1% Pluronic F68 in pH 4.5 acetate buffer (50 mM) at 37° C. for 2 hours and 24 hours.
10.4 mg of the free form Pattern A, 10.0 mg of the free form Pattern B, 10.8 mg of the HCl salt Pattern A, 12.2 mg of the phosphate salt Pattern A, or 10.5 mg of the sodium salt Pattern A was weighed into a 20 mL glass vial, respectively. 5 mL of solubility medium was added. The salt amount used was equivalent to 10 mg anhydrous free form. Obtained suspensions were stirred at 37° C. at 400 rpm and sampled at 2 hours and at 24 hours. The samples were centrifuged at 37° C. at 14,000 rpm for 5 min. Supernatants were analyzed by HPLC and PH meter for solubility and pH value, respectively. Residual solids (wet cakes) from the 24 hours samples were also characterized by XRPD to determine physical form.

[3] = Bulk stability (solid state, 1 week; HPLC, XRPD, IC, color); conditions: 25° C./92.5% RH open, 40° C./75% RH open, 60° C. tight container
Procedure: Bulk stability of free form Pattern B was evaluated at 25° C./92.5% RH in an open container, at 40° C./75% RH in an open container and at 60° C. in a tight container over 1 week.

[4] = Hygroscopicity by dynamic vapor sorption (DVS) at 25° C.; conditions: DVS at 25° C.
Procedure: Dynamic vapor sorption (DVS) was performed on an Intrinsic, Advantage or Adventure with an oven temperature of 25° C. using water as a solvent. The sample mass was about 5-10 mg using the following method: • Cycle: 40-0-95-0-40% RH • Stage Step: 10% • Equilibrium: 0.002 dm/dt (%/min) • Minimum dm/dt stability duration: 60 min • Maximum dm/dt stage time: 360 min. Hygroscopicity of free form Pattern B was evaluated by dynamic vapor sorption (DVS) test at 25° C. […] It absorbed about 0.8% water at 80% RH at 25° C.

Q: With `CCOc1cc(C(=O)N(C)Cc2cnc(CO)c3cn[nH]c23)ccc1-c1cc(F)cc(F)c1` [Pattern C, 2-ethoxy-3′,5′-difluoro-N-((4-(hydroxymethyl)-1H-pyrazolo[4,3-c]pyridin-7-yl)methyl)-N-methyl-[1,1′-biphenyl]-4-carboxamide] as the molecule, how does the “Form conversion after exposure in ambient condition” value [1] read?
A: Its value is “converted to Pattern A”.

Q: With `CCOc1cc(C(=O)N(C)Cc2cnc(CO)c3cn[nH]c23)ccc1-c1cc(F)cc(F)c1` [Free form Pattern B, 2-ethoxy-3′,5′-difluoro-N-((4-(hydroxymethyl)-1H-pyrazolo[4,3-c]pyridin-7-yl)methyl)-N-methyl-[1,1′-biphenyl]-4-carboxamide] as the molecule, how does the “XRPD of residual solid” value ([2]; FaSSGF, pH 1.6, 37° C.) read?
A: The value was “hemi-HCl salt Pattern A”.

Q: And the “Form after the solubility test (XRPD)” value ([2]; most of media)?
A: The value was “no form change or partially converted to free form Pattern A”.

Q: What about the “XRPD of residual solid” value ([2]; pH 1.2 HCl buffer, 37° C.) of the same molecule?
A: Its value is “Mono-HCl salt Pattern A”.

Q: What about the solubility ([2]; other media (pH 4.5 acetate, pH 6.8 phosphate, water, FaSSIF-v1, HPMC/Pluronic), 37° C., 2 h and 24 h) of the same molecule?
A: The solubility was 2 to 80 µg/mL (≈ 4.42 to 177 µM).

Q: And the solubility ([2]; pH 1.2 HCl buffer, pH 1.6 FaSSGF and pH 5.0 FeSSIF-v1, 37° C.)?
A: The solubility was 100 to 600 µg/mL (≈ 221 to 1330 µM).

Q: What about the “Bulk stability, chemical and physical” value [3] of the same molecule?
A: Its value is “physically and chemically stable”.

Q: And the “Degradation by HPLC” value [3]?
A: Its value is “no obvious degradation”.

Q: And the “Form change by XRPD” value [3]?
A: Its value is “no form change”.

Q: What about the Hygroscopicity [4] of the same molecule?
A: Its Hygroscopicity is “slightly hygroscopic”.

Q: What about the “XRPD after DVS test” value [4] of the same molecule?
A: The value was “still Pattern B”.

Q: What about the “Water absorbed at 80% RH” value ([4]; 80% RH) of the same molecule?
A: The value was “about 0.8%”.
